We go through 4 compounds from patent publication US20100292229A1, “TRYPHOSTIN-ANALOGS FOR THE TREATMENT OF CELL PROLIFERATIVE DISEASES” (The Board of Regents of the University of Texas System, priority 2006, published 2010).

One assay concerns the target T1, c-myc (Homo sapiens, UniProt P01106).
T1 construct: endogenous in cells; host or cells: MM-1 cells
Briefly: c-myc protein immunoblot in MM-1 cells. It counts as cell-based. Conditions: for Effect of inhibitor pretreatment on Degrasyn-mediated c-myc protein reduction: inhibitor 2 h, then 5 μM Degrasyn 2 h. As for the experimental part:
Top: MM-1 cells were incubated with 5 μM Degrasyn for the interval noted before cell lysates were prepared and subjected to immunoblotting for c-myc and actin as a protein loading control.
Middle: MM-1 cells were treated with the indicated concentration of Degrasyn for 1 h before lysates were immunoblotted for c-myc and actin.
Bottom: MM-1 cells were treated as indicated before extraction of total RNA (TRIzol). RNA was resolved by agarose electrophoresis, transferred to a membrane and hybridized with a c-myc probe to determine the level of c-myc RNA in each sample. The ethidium bromide stained gel was photographed and 28S RNA content was detected as a measure of RNA content in each lane.
MM-1 cells were pretreated with protease/proteosome inhibitors (LLnL; LLnM; E-64d; MG132; PS341; Chloroquine; Ammonium Chloride; Cycloheximide) for 2 h before the addition of 5 μM Degrasyn or vehicle alone (DMSO as indicated) for an additional 2 h. Cell lysates were prepared and equal protein aliquots were subjected to immunoblotting for c-myc, Max (a c-myc binding partner) or actin as a protein loading control.
Pictured: MM-1 cells were treated with biotinylated Degrasyn (Bio-Deg) or Degrasyn (at the indicated concentration) for 1 h before analyzing effects on c-myc as described in FIG. 15.
(§1) Western Blot analysis. Cells were harvested, washed twice in cold 1×PBS and lysed in modified RIPA lysis buffer (150 mM NaCl, 1% NP-40, 0.5% Na-deoxycholate [DOC], 0.1% Na-dodecyl sulfate [SDS], 50 mM Tris-HCl (pH 7.5), 1 mM EDTA, 1 mM NaF, 2 mM Na-vanadate, with protease inhibitors (1 mM PMSF, 1 mM benzamidine, 10 μg/ml aprotinin, 10 μg/ml leupeptin) on ice for 30 min. The lysed cells were centrifuged at 13,000 rpm for 30 min and the supernatant collected. The protein concentration of the cell lysate was determined by the Bradford Protein Assay. Fifty to 60 μg of protein were resolved in a 10% SDS-PAGE, and transferred to a PVDF membrane. Western blotting was performed using specific primary antibodies Peroxidase-conjugated affiniPure anti-Mouse Anti-Rabbit secondary antibodies (Jackson Immunoresearch Laboratories, West Grove, Pa.). The proteins were visualized with ECL Plus reagents (Amersham Biosciences).
(In general: Immunoblotting shows a protein as a band on a membrane.)

The test system of another assay is MM-1 cells. Briefly: MTT assay of cell growth and survival, MM-1 cells. The format is cell-based. As for the experimental part: (§2) All compounds are tested for purity (HPLC, NMR) and the calculated molecular weight is used to make up a 10 mM stock solution of each compound (in 100% dimethylsulfoxide or 50% dimethylsulfoxide:50% polyethylene glycol 300). Compounds are diluted into cell culture media consisting of RPMI 1640 with 10% fetal bovine serum to a final starting concentration of 10 μM. [Highest final DMSO content=0.1%.]. Tumor cells (20,000 for non-adherent cells; 5,000 for adherent cells) are plated into individual wells of a 96-well culture plate in 0.1 ml of culture media. Diluted compounds are added to individual wells containing pre-plated cells (final volume 0.2 ml) and incubated at 37° C. for 24 to 72 h. Wells receiving vehicle alone acted as a control.
(§3) MTT (viability) assay. MTT reagent (20 μl of 5 mg/ml stock solution, Sigma) is added to the cells and the plates are incubated at 37° C. for another 2 h. Cells are lysed by adding 100 μl of lysis buffer (20% SDS in 50% N,N-dimethylformamide (Sigma) adjusted to pH 4.7 by 80% acetic acid and 1 M HCl such that the final concentration of acetic acid is 2.5% and HCl is 2.5%) into each well and incubated for 6 h. The OD570 of each sample is determined by using a SPECTRA MAX M2 plate reader (Molecular Devices). The OD in control and treated wells is used as an estimate of the effect of compounds on cell growth and survival.
Cell lines. […] A375 melanoma cells were grown and maintained in the same media. Ba/F3 parental cells were grown in RPMI 1640 containing 10% heat inactivated fetal bovine serum and 2 mM glutamine supplemented with IL-3 (1 ng/ml) while Ba/F3 cells stably expressing Bcr/Abl or the T315I mutant of Bcr/Abl were grown in RPMI 1640 containing 10% heat inactivated fetal bovine serum and 2 mM glutamine in the absence of IL-3. Normal human dermal fibroblasts (NHDF) were obtained from Cambrex (Walkersville, Md.) and grown in specially formulated media (obtained through Cambrex) with 20% fetal calf serum.
IC50 determinations. The anti-tumor activity of certain compounds of the present invention against MM-1 cell lines was investigated and the IC50 values calculated (FIGS. 33A-F). In a typical experiment, MM-1 cell lines were incubated with a range of compound concentrations for 72 h to determine the concentration required to inhibit cell growth or induce apoptosis by 50% (IC50). MTT assays as described above were used to conduct this analysis.
For orientation: Formazan colour is commonly taken as a measure of viable cells.

Assay [1] has as its system p70 and p55 tyrosine phosphorylation. Nature of the assay: Phosphotyrosine (4G10) immunoblot in B-cell malignancy cell lines. The format is cell-based. Conditions: 2 h; MM-1, LP or Mino cells. As for the experimental part: MM-1 cells were pretreated with Degrasyn (at the concentration indicated) for 2 h before the addition of IL-6 for 15 min (as noted). Total cell lysates were prepared and equal protein aliquots were resolved by SDS-PAGE and immunoblotted for phosphotyrosine (4G10).
MM-1 and LP (lymphoma) cells were treated with Degrasyn (at the concentration indicated) for 2 h before cell lysates were prepared and equal protein aliquots were resolved by SDS-PAGE and immunoblotted for phosphotyrosine (4G10).
MM-1 and Mino (Mantle cell lymphoma) cells were treated with Degrasyns with different levels of anti-tumor efficacy (at the concentration indicated) for 2 h before cell lysates were prepared and equal protein aliquots were resolved by SDS-PAGE and immunoblotted for phosphotyrosine (4G10).
MM-1 cells were treated as indicated before analysis of cellular tyrosine phosphorylation by immunoblotting. Both p70 and p55 were tyrosine phosphorylated after 15 min of Degrasyn treatment which peaks in intensity after 1 h and remains higher than control levels after 4 h. These early changes may underlie or be a marker of Degrasyn activity in B-cell malignancies.
as §1

The test system of the next assay is K562 cells. Nature of the assay: MTT assay of cell growth and survival, K562 cells. The format is cell-based, human. Particulars: FIG. 21; anti-tumor activity. As for the experimental part: as §2, §3
Cell lines. […]

Another assay addresses T2, nucleophosmin (NPM) (Homo sapiens, UniProt P06748).
T2 construct: endogenous in cells; host or cells: MM-1 and K562 cell lysates
Briefly: Affinity recovery of Degrasyn interactive proteins with streptavidin beads. It counts as binding. Particulars: MM-1 or K562 cell lysates. As for the experimental part:
Biotinylated-Degrasyn (10 μM) was incubated with lysates from MM-1 cells (10 mg total protein) and interactive proteins were assessed by affinity recovery using Streptavidin-conjugated beads to bind biotinylated-Degrasyn. Free Degrasyn (10 μM) was incubated with biotinylated-Degrasyn in a parallel experiment to assist in identifying specific protein:Degrasyn interactions. Affinity complexes were washed and Streptavidin-Bio-Deg interaction proteins were assessed by disrupting protein complexes with SDS-sample buffer and resolving proteins by SDS-PAGE. The resolved proteins were detected by silver-staining the gel. Protein bands present in the biotinylated-Degrasyn sample that were absent in samples co-incubated with free Degrasyn were identified and cut from the gel. A 38 kDa protein band was prominent in this assessment and was subjected to in gel trypsinization and identification of HPLC resolved tryptic peptides by tandem mass spectroscopy analysis (David Hawke, Department of Molecular Pathology, M.D. Anderson Cancer Center). This analysis identified nucleophosmin (NPM) as a Degrasyn interactive protein.
To further assess the interaction between NPM and Degrasyn, biotinylated-Degrasyn/streptavidin beads were incubated with MM-1 (left) or K562 (right) cell lysates. In parallel, lysates were co-incubated with free Degrasyn to determine the specificity of the interaction with NPM. […]

Where a SMILES comes first, the peptide text is derived from it. The star is where a group is joined. Cbz = O=C(OCc1ccccc1)*

T1 sequence (P01106 16-454 limits assumed): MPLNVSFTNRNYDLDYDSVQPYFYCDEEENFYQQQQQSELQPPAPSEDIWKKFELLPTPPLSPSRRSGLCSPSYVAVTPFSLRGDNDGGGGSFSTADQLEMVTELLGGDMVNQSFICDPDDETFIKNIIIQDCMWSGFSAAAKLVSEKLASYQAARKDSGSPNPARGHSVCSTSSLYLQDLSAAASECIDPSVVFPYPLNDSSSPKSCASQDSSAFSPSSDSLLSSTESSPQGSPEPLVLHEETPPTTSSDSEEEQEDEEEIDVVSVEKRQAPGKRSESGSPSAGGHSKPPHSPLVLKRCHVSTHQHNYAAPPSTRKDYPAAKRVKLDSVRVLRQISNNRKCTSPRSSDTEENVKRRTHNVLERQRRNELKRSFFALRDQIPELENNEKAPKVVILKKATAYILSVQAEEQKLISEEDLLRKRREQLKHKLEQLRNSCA
T2 sequence (P06748 whole entry): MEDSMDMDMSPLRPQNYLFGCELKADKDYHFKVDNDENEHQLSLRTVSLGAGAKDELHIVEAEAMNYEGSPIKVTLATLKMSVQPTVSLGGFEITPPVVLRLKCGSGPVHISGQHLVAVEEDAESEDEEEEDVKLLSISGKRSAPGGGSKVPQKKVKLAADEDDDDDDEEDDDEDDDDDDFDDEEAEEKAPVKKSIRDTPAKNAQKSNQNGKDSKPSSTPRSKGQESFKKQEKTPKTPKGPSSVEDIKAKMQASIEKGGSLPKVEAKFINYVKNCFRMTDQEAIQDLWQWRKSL

As to `CC(C)C[C@H](NC(=O)[C@H](Cc1ccccc1)NC(=O)c1cnccn1)B(O)O` [PS341, reference compound], the “Effect of inhibitor pretreatment on Degrasyn-mediated c-myc protein reduction” value on c-myc is “block Degrasyn-mediated c-myc protein reduction”.

On to `N#C/C(=C\c1cccc(Br)n1)C(=O)NC(c1ccccc1)C1CC1` (stereo not drawn) [BDT-16], for which the “Anti-tumor activity relative to WP1130” value with MM-1 cells (FIG. 28) is on record as “greater anti-tumor activity than WP1130”. Besides, the “Tyrosine phosphorylated protein species (~70 kDa, ~55 kDa)” value in assay [1] is reported as “more potently stimulates tyrosine phosphorylation”.

With “2-Propenamide, 2-cyano-3-(3-bromo 2-pyridinyl)-N-(2-phenyl-2-ethylene)-1-biotinyl ester-(E) [Bio-Degrasyn]”, the IC50 in the assay on MM-1 cells (FIG. 21, anti-tumor activity, read-out: IC50 for MM-1 cells) came to 3.8 µM; in the assay with K562 cells it was 5.6 µM. In addition, in the assay with MM-1 cells (MM-1 and K562 cells, relative to Degrasyn), the “Reduction of anti-tumor activity by biotinylation” value is listed as roughly 2 fold. On c-myc (FIG. 21, 1 h), the c-myc protein levels result is listed as “reduced c-myc protein levels”. Besides, at nucleophosmin (NPM), the “Interaction with NPM” value is listed as “recovered NPM from cell lysates”.

In the case of `CC(C)C[C@@H](C=O)NC(=O)[C@H](CC(C)C)NC(=O)[C@H](CC(C)C)NC(=O)OCc1ccccc1` [MG132, reference compound] (Cbz-Leu-Leu-Leu-aldehyde), the “Effect of inhibitor pretreatment on Degrasyn-mediated c-myc protein reduction” value on c-myc is “block Degrasyn-mediated c-myc protein reduction”.

A word on the IC50: it is the concentration at which inhibition is half-maximal.
